# Read-outs that look alike come from different tables or passages of the source.
# Assays:
# [1] = test system: 4T1 cells; assay: MTT assay; assay type: cell-based, murine; settings: Mus musculus, read-out: IC50, µM (M ± SD)
# Procedure: (§1) The MCF-7 and MDA-MB-231 cells were cultured in the DMEM medium containing 10% of the FBS, HCC1954, T-47D, and 4T1 cells in the RPMI-1640 medium with the addition of 10% of the FBS, and MCF-10A cells in MEGM Mammary Epithelial Cell Growth Medium BulletKit supplemented with penicillin/streptomycin cocktail and 5% of horse serum. The cells were cultured in a […] atmosphere at 5% CO2 and 37 °C. After trypsinization, cells were counted using a Scepter 3.0 handheld automated cell counter (Millipore, Burlington, MA, USA).
# (§2) The MTT test was used to assess the metabolic activity of cells treated with the investigated substances following the Sigma-Aldrich manufacturer’s instructions. Briefly, compounds were added in 100 µL of the cultural medium, and cells were incubated for the next 24 and 48 h. Doxorubicin was used as a reference drug. The DMSO was added to dissolve the crystals of formazan. We used the ThermoScientific Evolution 201 UV–VIS spectrophotometer (ThermoFisher Scientific, Waltham, MA, USA) to measure the absorbance of formazan at 570 nm. The initial value of the relative number of cells in control (under 0.1% of the DMSO) was accepted as 100%. We used GraphPad Prism Version 9 to calculate the half-maximal inhibition concentration (IC50) of the studied compounds (the concentration of the drug that reduced cell viability by 50%).
# [2] = test system: HCC1954 cells; assay: MTT assay; assay type: cell-based; settings: Homo sapiens, read-out: IC50, µM (M ± SD)
# Procedure: as §1, §2
# [3] = test system: MCF-7 cells; assay: MTT assay; assay type: cell-based; settings: Homo sapiens, read-out: IC50, µM (M ± SD)
# Procedure: as §1, §2
# [4] = test system: MDA-MB-231 cells; assay: MTT assay; assay type: cell-based; settings: Homo sapiens, read-out: IC50, µM (M ± SD)
# Procedure: as §1, §2
# [5] = test system: T-47D cells; assay: MTT assay; assay type: cell-based; settings: Homo sapiens, T47D, read-out: IC50, µM (M ± SD)
# Procedure: as §1, §2
# [6] = test system: HCC1954 cells; assay: Clonogenic assay; assay type: cell-based, human; settings: for IC50: Homo sapiens, HCC1954, 72 h exposure, 14 days culture, read-out: IC50 (M ± SD) in clonogenic assay
# Procedure: (§3) The clonogenic assay was carried out utilizing the previously published methodology. The MCF-7, MDA-MB-231, HCC1954, and MCF-10A cells (500 cells/2 mL) were seeded in a 12-well plate overnight. Afterward, studied derivatives or doxorubicin (1, 2.5, 5, 10, and 50 µM) were added to cells. The media was changed after 72 h to a compound-free one, and the cells were cultured for the following 14 days. Then, the cells were washed, fixed, and stained with 0.1% crystal violet. After washing, the plates were dried at room temperature. The colonies were recorded by ImageJ software (Version 1.30). The value of colonies in control (non-treated cells) was accepted as 100%. The effect of compounds on the colony-forming ability of cells was expressed as the percentage of colonies compared to the control.
# [7] = test system: MDA-MB-231 cells; assay: Clonogenic assay; assay type: cell-based, human; settings: for IC50: Homo sapiens, MDA-MB-231, 72 h exposure, 14 days culture, read-out: IC50 (M ± SD) in clonogenic assay
# Procedure: as §3
# [8] = test system: HCC1954 cells; assay: [3H]-thymidine incorporation assay; assay type: cell-based; settings: Homo sapiens; HCC1954, 24 h; read-out: IC50 (M ± SD) in [3H]-thymidine assay (DNA synthesis)
# Procedure: (§4) Following a 24 h cell treatment, the incorporation of [^3H]-thymidine into the DNA of the breast tumor and normal cells was used to measure the antiproliferative activity of Les-6287. The MCF-7, MDA-MB-231, HCC1954, and MCF-10A cells were seeded into six-well plates (density 3 × 10^5 cells/well) and cultured for 24 h. Then, they were incubated under the same conditions for the next 24 h with a growth medium containing the tested compounds and reference drug (doxorubicin) at different concentrations (1, 2.5, 5, 10, 50 µM). After 24 h, the medium was changed to a fresh one without FBS. A total of 0.5 µCi of tritium-labeled thymidine (specific activity: 7 Ci/mmol) was added to cells for 4 h. The cells were washed with 1 mL of 0.05 M Tris-HCl buffer pH 7.4 containing 0.11 M NaCl and 1 mL of 5% trichloroacetic acid (TCA). Each well was filled with 1 mL of a 0.1 M NaOH solution containing 1% SDS to complete cell lysis. After 5 min, the acquired cell lysates were put into scintillation vials and pre-filled with two milliliters of scintillation liquid. The Scintillation Counter 1900 TR, TRI-CARB (Packard, Perkin Elmer, Inc., San Jose, CA, USA) was used to record the results. The effect of compounds on DNA synthesis was expressed as % of the control (non-treated cells).
# [9] = test system: MCF-10A cells; assay: [3H]-thymidine incorporation assay; assay type: cell-based; settings: Homo sapiens, 24 h, read-out: IC50 (M ± SD) in [3H]-thymidine assay (DNA synthesis)
# Procedure: as §4
# [10] = test system: MCF-7 cells; assay: [3H]-thymidine incorporation assay; assay type: cell-based; settings: Homo sapiens, MCF7; MCF-7, 24 h; read-out: IC50 (M ± SD) in [3H]-thymidine assay (DNA synthesis)
# Procedure: as §4
# [11] = test system: MDA-MB-231 cells; assay: [3H]-thymidine incorporation assay; assay type: cell-based; settings: Homo sapiens; MDA-MB-231, 24 h; read-out: IC50 (M ± SD) in [3H]-thymidine assay (DNA synthesis)
# Procedure: as §4
# [12] = test system: LC3B in MCF-7 cells; assay: LC3B ELISA in cell lysates; assay type: cell-based, human; settings: MCF-7, 24 h, compound concentration not stated; control 574.84 ng/mL
# Procedure: (§5) In order to determine the Beclin-1 concentration in the cell lysates, the SimpleStep ELISA (Abcam, Cambridge, UK) Kit was used. MMP-2, MMP-9, and ICAM-1 concentrations were measured in culture supernatants using high-sensitivity human SimpleStep ELISA kits (Abcam, Cambridge, UK) according to the manufacturer’s protocols. The LC3B ELISA kit (BT LAB, Shanghai, China) was used to check the protein concentration in cell lysates from analyzed breast cancer cells. The procedure for preparing the samples was shown previously.
# [13] = test system: LC3B in MDA-MB-231 cells; assay: LC3B ELISA in cell lysates; assay type: cell-based, human; settings: MDA-MB-231, 24 h, 2 μM; control 698.25 ng/mL
# Procedure: as §5
Structure (SMILES),"IC50 ([1]; 4T1, 24 h) [µM]","IC50 ([1]; 4T1, 48 h) [µM]","IC50 ([2]; HCC1954, 24 h) [µM]","IC50 ([2]; HCC1954, 48 h) [µM]","IC50 ([3]; MCF7, MCF-7, 24 h) [µM]","IC50 ([3]; MCF7, MCF-7, 48 h) [µM]","IC50 ([4]; MDA-MB-231, 24 h) [µM]","IC50 ([4]; MDA-MB-231, 48 h) [µM]",IC50 ([5]; 24 h) [µM],IC50 ([5]; 48 h) [µM],IC50 [6] [nM],IC50 [7] [nM],IC50 [8] [nM],IC50 [9] [nM],IC50 [10] [nM],IC50 [11] [nM],"formation of colonies ([6]; HCC1954, compound at 1 µM)","formation of colonies ([7]; MDA-MB-231, compound at 1 µM)",concentration of LC3B [12] [ng/mL],concentration of LC3B [13] [ng/mL]
"COc1cccc2c1C(=O)c1c(O)c3c(c(O)c1C2=O)C[C@@](O)(C(=O)CO)C[C@@H]3O[C@H]1C[C@H](N)[C@H](O)[C@H](C)O1 [Dox, doxorubicin, reference compound]",2.37 ± 0.25,1.98 ± 0.21,1.9 ± 0.11,1.15 ± 0.16,3.47 ± 0.49,0.18 ± 0.07,6.18 ± 0.08,1.09 ± 0.09,3.66 ± 0.33,2.31 ± 0.24,430 ± 110,420 ± 110,1070 ± 40,3190 ± 430,660 ± 130,630 ± 110,–,–,–,–
"O=C1CC(N2C(=O)C(=CC(Cl)=Cc3ccc([N+](=O)[O-])cc3)SC2=S)C(=O)N1c1ccc(O)cc1 (stereo not drawn) [Les-6287, 1-(4-hydroxyphenyl)-3-[5-[2-chloro-3-(4-nitrophenyl)prop-2-enylidene]-4-oxo-2-thioxothiazolidine-3-yl]pyrrolidine-2,5-dione]",1.6 ± 0.14,1.62 ± 0.21,2.52 ± 0.65,2.25 ± 0.64,2.34 ± 0.16,1.43 ± 0.18,3.86 ± 0.24,1.37 ± 0.15,3.11 ± 0.19,1.74 ± 0.25,430 ± 110,420 ± 110,3670 ± 90,43500 ± 1160,2370 ± 20,2320 ± 40,totally inhibited,totally inhibited,537.74,483.50

# — PMC11352273, “The Proapoptotic Action of Pyrrolidinedione–Thiazolidinone Hybrids towards Human Breast Carcinoma Cells Does Not Depend on Their Genotype” (Cancers, 2024)
